According to patent EP2338876A1, “Tamsulosin adipate for pharmaceutical use” (LEK Pharmaceuticals d.d., priority 2009, dated 2011):

Experiments:
Type in all cases: physicochemical
[1] = Solid-state stability at higher temperature
Description: Tamsulosin adipate dihydrate from Example 9 (1.0 g), is heated at 80 °C for 24 h to give a glassy solid which is crushed and homogenised.

[2] = Solid-state stability at ambient and at low relative humidity
Description: Tamsulosin adipate dihydrate from Example 9 (1.0 g), is stayed in an open dish in an airtight chamber at temperature of 25 °C and relative humidity of below 10 % (achieved by means of dry desiccant) for 3 days.

[3] = Solubility in water, relative between solid forms; conditions: 60-100 ml of water per gram of the salt, room temperature; compared with anhydrous or amorphous tamsulosin adipate
Description: In another embodiment of the invention tamsulosin adipate dihydrate can be prepared also from water solutions from more soluble forms of tamsulosin adipate (anhydrous or amorphous). Depending on kinetic factors two polymorphs of tamsulosin adipate dihydrate can be obtained. In another embodiment tamsulosin adipate (anhydrous or amorphous) is dissolved in a small amount of water, preferably in 60-100 ml of water per gram of the salt, most preferably in 80-90 ml per gram, preferably at room temperature. Less soluble dihydrate spontaneously precipitates from the solution, yielding tamsulosin adipate dihydrate, characterized by the peaks at about 2θ= 10.2, 10.5, 13.5, 15.5, 16.3, 21.1, 21.9° 24.3, 25.2, 28.3 and 35.9° particularly characteristic peaks are 15.5, 21.9°, 28.3, and 35.9°.

[4] = Solubility in lower alcohols compared with tamsulosin hydrochloride; conditions: compared with commercially available tamsulosin hydrochloride
From the text: The adipate forms of tamsulosin prepared according to the present invention have favourable solubility properties. […] This property could be an indicator for better interactions with less polar surfaces (e.g. lipid barriers) and allows more homogeneous preparation of pharmaceutical preparations in which tamsulosin should be homogenously mixed with lipophilic excipients (such as in preparation of transdermal dosage forms). The adipate anion has been shown physiologically acceptable. The tamsulosin adipate has therefore appropriate properties for smooth interaction with hydrophilic and lipophilic surfaces.

Row | stability at higher temperatures ([1]; preferably above 70 °C, most preferably above 80 °C) | stability in extremely dry conditions ([2]; below 20 % relative humidity, preferably below 10 %) | stability under normal ambient conditions ([2]; normal ambient conditions) | solid form after storage at low humidity (XRPD) ([2]; open dish, airtight chamber, 25 °C, relative humidity below 10 %, 3 days) | solubility in water relative to other forms [3] | SMILES | solid form after heating (XRPD) ([1]; 80 °C for 24 h) | solubility in lower alcohols [4]
1 | loses water | loses water | stable | amorphous material | Less soluble | CCOc1ccccc1OCCN[C@H](C)Cc1ccc(OC)c(S(N)(=O)=O)c1 [Tamsulosin adipate dihydrate, tamsulosin adipate dihydrate form A] | amorphous material with traces of anhydrous crystalline form | 
2 |  |  |  |  |  | CCOc1ccccc1OCCN[C@H](C)Cc1ccc(OC)c(S(N)(=O)=O)c1 [Tamsulosin adipate, tamsulosin adipate] |  | more soluble in lower alcohols, than the commercially available tamsulosin hydrochloride
